For the assay, the target named is human NaV1.8 (Homo sapiens (Human), UniProt Q9Y5Y9). Briefly: Nav1.8 Qube automated patch-clamp assay. Type of assay: cell-based. The note with it: human NaV1.8 stably expressed in HEK 293 cells; automated 384-well patch-clamp; resting or inactivated state not specified. The essentials: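 Human NaV1.8 in HEK293 cells, automated whole-cell patch clamp at room temperature: 1 Hz train of ten 20 ms pulses to 10 mV from −90 mV, repolarization to −67 mV. First- and tenth-pulse peak currents gave resting and inactivated-state IC50 values via Hill fits.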
Background: In patch-clamp work, channel activity is measured electrically.

Chain of human NaV1.8 (Q9Y5Y9 whole entry): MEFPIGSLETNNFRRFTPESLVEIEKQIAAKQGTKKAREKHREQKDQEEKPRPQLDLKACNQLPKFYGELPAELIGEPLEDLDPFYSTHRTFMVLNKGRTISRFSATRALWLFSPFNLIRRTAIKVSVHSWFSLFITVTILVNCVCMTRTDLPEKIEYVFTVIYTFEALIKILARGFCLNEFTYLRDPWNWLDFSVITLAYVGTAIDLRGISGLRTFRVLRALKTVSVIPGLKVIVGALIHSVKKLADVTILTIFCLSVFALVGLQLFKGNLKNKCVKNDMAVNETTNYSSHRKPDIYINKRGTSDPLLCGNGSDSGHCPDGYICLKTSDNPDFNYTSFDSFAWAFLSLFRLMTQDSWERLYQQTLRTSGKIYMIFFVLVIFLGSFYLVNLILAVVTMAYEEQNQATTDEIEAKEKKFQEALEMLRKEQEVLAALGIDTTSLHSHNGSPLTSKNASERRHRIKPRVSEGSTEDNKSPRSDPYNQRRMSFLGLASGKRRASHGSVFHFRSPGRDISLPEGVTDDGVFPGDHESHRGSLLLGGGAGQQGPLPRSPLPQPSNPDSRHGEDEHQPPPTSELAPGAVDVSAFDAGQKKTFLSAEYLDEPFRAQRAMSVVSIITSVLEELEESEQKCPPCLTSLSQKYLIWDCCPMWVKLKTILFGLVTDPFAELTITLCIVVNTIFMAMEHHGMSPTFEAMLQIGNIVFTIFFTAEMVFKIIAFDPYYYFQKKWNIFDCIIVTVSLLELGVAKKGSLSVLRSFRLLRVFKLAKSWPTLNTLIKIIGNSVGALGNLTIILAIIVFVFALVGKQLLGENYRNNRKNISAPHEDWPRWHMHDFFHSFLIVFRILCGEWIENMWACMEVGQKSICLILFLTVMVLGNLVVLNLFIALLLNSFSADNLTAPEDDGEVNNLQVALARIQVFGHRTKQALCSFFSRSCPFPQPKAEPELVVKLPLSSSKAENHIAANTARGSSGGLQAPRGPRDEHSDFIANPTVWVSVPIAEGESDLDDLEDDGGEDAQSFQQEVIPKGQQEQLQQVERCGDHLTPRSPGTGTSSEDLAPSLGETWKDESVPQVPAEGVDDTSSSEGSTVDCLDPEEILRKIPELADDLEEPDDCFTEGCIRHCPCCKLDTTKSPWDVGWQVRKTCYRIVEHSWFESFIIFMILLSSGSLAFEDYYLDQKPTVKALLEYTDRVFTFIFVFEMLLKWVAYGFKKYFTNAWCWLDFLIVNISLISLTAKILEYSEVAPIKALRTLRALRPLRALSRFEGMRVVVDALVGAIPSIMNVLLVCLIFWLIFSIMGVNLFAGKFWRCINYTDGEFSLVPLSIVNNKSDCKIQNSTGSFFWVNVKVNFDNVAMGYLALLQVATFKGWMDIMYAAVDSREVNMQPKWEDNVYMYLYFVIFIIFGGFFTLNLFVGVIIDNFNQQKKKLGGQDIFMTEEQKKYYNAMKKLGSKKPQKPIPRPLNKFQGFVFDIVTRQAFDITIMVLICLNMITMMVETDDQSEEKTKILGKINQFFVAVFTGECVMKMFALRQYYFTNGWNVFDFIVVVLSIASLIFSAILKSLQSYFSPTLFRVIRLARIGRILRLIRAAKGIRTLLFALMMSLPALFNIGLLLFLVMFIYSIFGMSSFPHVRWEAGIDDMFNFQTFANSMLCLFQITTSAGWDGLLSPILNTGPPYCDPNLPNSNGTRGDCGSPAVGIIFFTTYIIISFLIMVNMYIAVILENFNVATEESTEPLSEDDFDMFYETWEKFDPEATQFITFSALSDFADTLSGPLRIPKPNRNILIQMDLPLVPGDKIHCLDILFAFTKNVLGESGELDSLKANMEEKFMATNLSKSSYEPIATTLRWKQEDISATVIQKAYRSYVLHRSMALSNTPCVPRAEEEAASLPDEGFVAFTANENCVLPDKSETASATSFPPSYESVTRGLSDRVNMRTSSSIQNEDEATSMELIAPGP

Turning to `CN1CCC(C(NC(=O)[C@@H]2CNC(=O)N2)c2ccc(F)c(Cl)c2F)CC1C(F)(F)F` (single isomer, unassigned) [Example 78C, (S)-N-((R or S)-(3-chloro-2,4-difluoro-phenyl)((cis or trans)-1-methyl-2-(trifluoro-methyl)piperidin-4-yl)methyl)-2-oxoimidazolidine-4-carboxamide], it took 8630 nM to reach half-maximal inhibition (IC50).

With `CN1CCC(C(NC(=O)[C@@H]2CNC(=O)N2)c2ccc(F)c(Cl)c2F)CC1C(F)(F)F` (single isomer, unassigned) [Example 78D, (S)-N-((R or S)-(3-chloro-2,4-difluoro-phenyl)((cis or trans)-1-methyl-2-(trifluoro-methyl)piperidin-4-yl)methyl)-2-oxoimidazolidine-4-carboxamide], half-maximal inhibition (IC50) was put at 4660 nM. This IC50 lies about 1.9-fold lower than the previous one.

Consider `CN1CCC(C(NC(=O)[C@@H]2CNC(=O)N2)c2ccc(F)c(Cl)c2F)CC1C(F)(F)F` (single isomer, unassigned) [Example 78E, (S)-N-((R or S)-(3-chloro-2,4-difluoro-phenyl)((cis or trans)-1-methyl-2-(trifluoro-methyl)piperidin-4-yl)methyl)-2-oxoimidazolidine-4-carboxamide], for which the IC50 (as a rule, the midpoint of a concentration-inhibition curve) was 24 nM. In the case of `O=C1NC[C@@H](C(=O)NC(c2ccc(F)c(Cl)c2F)C2COC(C(F)(F)F)C2)N1` (single isomer, unassigned) [Example 79A, (S)-N-((R or S)-(3-chloro-2,4-difluoro-phenyl)((cis or trans)-5-(trifluoro-methyl)-tetrahydrofuran-3-yl)methyl)-2-oxoimidazolidine-4-carboxamide], the IC50 came out at 39 nM. Against the preceding compound, the IC50 is about 1.6-fold higher.

On to `O=C1NC[C@@H](C(=O)NC(c2ccc(F)c(Cl)c2F)C2COC(C(F)(F)F)C2)N1` (single isomer, unassigned) [Example 79B, (S)-N-((R or S)-(3-chloro-2,4-difluoro-phenyl)((cis or trans)-5-(trifluoromethyl)tetrahydrofuran-3-yl)methyl)-2-oxoimidazolidine-4-carboxamide], for which half-maximal inhibition (IC50) was put at 190 nM. This IC50 is about 4.9-fold higher than that of the compound before. In the case of `O=C1NC[C@@H](C(=O)NC(c2ccc(F)c(Cl)c2F)C2COC(C(F)(F)F)C2)N1` (single isomer, unassigned) [Example 79C, (S)-N-((R or S)-(3-chloro-2,4-difluoro-phenyl)((cis or trans)-5-(trifluoromethyl)tetrahydrofuran-3-yl)methyl)-2-oxoimidazolidine-4-carboxamide], the IC50 amounted to 886 nM.

`O=C1NC[C@@H](C(=O)NC(c2ccc(F)c(Cl)c2F)C2COC(C(F)(F)F)C2)N1` (single isomer, unassigned) [Example 79D, (S)-N-((R or S)-(3-chloro-2,4-difluoro-phenyl)((cis or trans)-5-(trifluoromethyl)tetrahydrofuran-3-yl)methyl)-2-oxoimidazolidine-4-carboxamide]: half-maximal inhibition (IC50) was put at 3680 nM. `O=C1NC[C@@H](C(=O)NC(c2ccc(F)c(Cl)c2F)C2COC(C(F)(F)F)C2)N1` (single isomer, unassigned) [Example 79E, (S)-N-((R or S)-(3-chloro-2,4-difluoro-phenyl)((cis or trans)-5-(trifluoromethyl)tetrahydrofuran-3-yl)methyl)-2-oxoimidazolidine-4-carboxamide] gave an IC50 of 49 nM. In the case of `O=C1NC[C@@H](C(=O)NC(c2ccc(F)c(Cl)c2F)C2COC(C(F)(F)F)C2)N1` (single isomer, unassigned) [Example 79F, (S)-N-((R or S)-(3-chloro-2,4-difluoro-phenyl)((cis or trans)-5-(trifluoromethyl)tetrahydrofuran-3-yl)methyl)-2-oxoimidazolidine-4-carboxamide], the IC50 amounted to 520 nM. The value for `O=C1NC[C@@H](C(=O)NC(c2ccc(F)c(Cl)c2F)C2COC(C(F)(F)F)C2)N1` (single isomer, unassigned) [Example 79G, (S)-N-((R or S)-(3-chloro-2,4-difluoro-phenyl)((cis or trans)-5-(trifluoromethyl)tetrahydrofuran-3-yl)methyl)-2-oxoimidazolidine-4-carboxamide] was 2330 nM; that for `O=C1NC[C@@H](C(=O)NC(c2ccc(F)c(Cl)c2F)C2COC(C(F)(F)F)C2)N1` (single isomer, unassigned) [Example 79H, (S)-N-((R or S)-(3-chloro-2,4-difluoro-phenyl)((cis or trans)-5-(trifluoromethyl)tetrahydrofuran-3-yl)methyl)-2-oxoimidazolidine-4-carboxamide] was 3860 nM; that for `O=C1NC[C@@H](C(=O)NC(c2ccc(Cl)cc2)c2ccn3nccc3c2)N1` (single isomer, unassigned) [Example 80A, (S)—N—((R or S)-(4-chlorophenyl)(pyrazolo[1,5-a]pyridin-5-yl)methyl)-2-oxoimidazolidine-4-carboxamide] was 100 nM. Compound `O=C1NC[C@@H](C(=O)NC(c2ccc(Cl)cc2)c2ccn3nccc3c2)N1` (single isomer, unassigned) [Example 80B, (S)-N-((R or S)-(4-chlorophenyl) (pyrazolo[1,5-a]pyridin-5-yl)methyl)-2-oxoimidazolidine-4-carboxamide] came in with an IC50 of 107 nM. This IC50 and that of the compound before are within 1.5-fold of each other. Turning to `O=C1NC[C@@H](C(=O)NC(c2ccc(Cl)cc2)c2ccc3cn[nH]c3c2)N1` (single isomer, unassigned) [Example 82A, (S)-N-((R or S)-(4-chlorophenyl)(1H-indazol-6-yl)methyl)-2-oxoimidazolidine-4-carboxamide], the IC50 came out at 255 nM. The value for `O=C1NC[C@@H](C(=O)NC(c2ccc(Cl)cc2)c2ccc3cn[nH]c3c2)N1` (single isomer, unassigned) [Example 82B, (S)-N-((R or S)-(4-chlorophenyl)(1H-indazol-6-yl)methyl)-2-oxoimidazolidine-4-carboxamide] was 93 nM; that for `Cc1nc2ccc(C(NC(=O)[C@@H]3CNC(=O)N3)c3ccc(Cl)cc3)cc2o1` (single isomer, unassigned) [Example 83A, (S)-N-((R or S)-(4-chlorophenyl)(2-methylbenzo[d]oxazol-6-yl)methyl)-2-oxoimidazolidine-4-carboxamide] was 147 nM; that for `Cc1nc2ccc(C(NC(=O)[C@@H]3CNC(=O)N3)c3ccc(Cl)cc3)cc2o1` (single isomer, unassigned) [Example 83B, (S)-N-((R or S)-(4-chlorophenyl)(2-methylbenzo[d]oxazol-6-yl)methyl)-2-oxoimidazolidine-4-carboxamide] was 201 nM. The value for `CS(=O)(=O)c1ccc(C(NC(=O)[C@@H]2CNC(=O)N2)c2ccc(F)c(Cl)c2)cc1` (single isomer, unassigned) [Example 85A, (S)-N-((R or S)-(3-chloro-4-fluorophenyl)(4-(methylsulfonyl)phenyl)methyl)-2-oxoimidazolidine-4-carboxamide] was 372 nM; that for `CS(=O)(=O)c1ccc(C(NC(=O)[C@@H]2CNC(=O)N2)c2ccc(F)c(Cl)c2)cc1` (single isomer, unassigned) [Example 85B, (S)-N-((R or S)-(3-chloro-4-fluorophenyl)(4-(methylsulfonyl)phenyl)methyl)-2-oxoimidazolidine-4-carboxamide] was 1280 nM; that for `O=C1NC[C@@H](C(=O)NC(c2ccc(F)c(Cl)c2)c2nc3ccccc3s2)N1` (single isomer, unassigned) [Example 87, (S)-N-((R or S)-benzo[d]thiazol-2-yl(3-chloro-4-fluoro-phenyl)methyl)-2-oxoimidazolidine-4-carboxamide] was 2.9 nM. Turning to `O=C1NC[C@@H](C(=O)NC(c2ccc(F)c(Cl)c2)c2nc3ccccc3o2)N1` (single isomer, unassigned) [Example 88, (S)-N-((R or S)-benzo[d]oxazol-2-yl(3-chloro-4-fluoro-phenyl)methyl)-2-oxoimidazolidine-4-carboxamide], the IC50 was determined as 8.6 nM.

As to `O=C1NC[C@@H](C(=O)NC(c2ccc(OC(F)(F)F)cc2)c2ccc3c(c2)C(F)(F)C3)N1` (single isomer, unassigned) [Example 89, (S)—N—((R or S)-(8,8-difluorobicyclo[4.2.0]octa-1(6),2,4-trien-3-yl)(4-(trifluoromethoxy)phenyl)methyl)-2-oxoimidazolidine-4-carboxamide], the 50% inhibitory concentration (IC50) is 4.9 nM. Against the preceding compound, the IC50 is about 1.8-fold lower. In turn, `O=C1NC[C@@H](C(=O)NC(c2ccc(Cl)cc2)c2ccc3c(c2)CC3(F)F)N1` (single isomer, unassigned) [Example 90, (S)-N-((R or S)-(4-chlorophenyl)(7,7-difluorobicyclo[4.2.0]octa-1(6),2,4-trien-3-yl)methyl)-2-oxoimidazolidine-4-carboxamide] gave an IC50 of 3.8 nM. The value for `CC1(C)CC(C(NC(=O)[C@@H]2CNC(=O)N2)c2ccc(Cl)cc2)CCN1CC(F)(F)F` (single isomer, unassigned) [Example 91A, (4S)—N—((R or S)(4-chlorophenyl)((R or S)2,2-dimethyl-1-(2,2,2-trifluoroethyl)piperidin-4-yl)methyl)-2-oxoimidazolidine-4-carboxamide] was 289 nM; that for `CC1(C)CC(C(NC(=O)[C@@H]2CNC(=O)N2)c2ccc(Cl)cc2)CCN1CC(F)(F)F` (single isomer, unassigned) [Example 91B, (4S)—N—((R or S)(4-chlorophenyl)((R or S)2,2-dimethyl-1-(2,2,2-trifluoroethyl)piperidin-4-yl)methyl)-2-oxoimidazolidine-4-carboxamide] was 899 nM; that for `CC1(C)CC(C(NC(=O)[C@@H]2CNC(=O)N2)c2ccc(Cl)cc2)CCN1CC(F)(F)F` (single isomer, unassigned) [Example 91C, (4S)—N—((R or S)(4-chlorophenyl)((R or S)2,2-dimethyl-1-(2,2,2-trifluoroethyl)piperidin-4-yl)methyl)-2-oxoimidazolidine-4-carboxamide] was 2960 nM.

These data come from patent US20230312528A1, “2-OXO-IMIDAZOLIDINE-4-CARBOXAMIDES AS NAV1.8 INHIBITORS” (Merck Sharp & Dohme LLC, priority 2020, published 2023).
